# Measurements reported in PubChem BioAssay (NCI).
#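 Briefly, cells in 96-well plates were exposed to five compound concentrations for 48 h, and endpoints were estimated by linear interpolation. Definition used: TGI = concentration required for complete inhibition of growth.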
# Assays:
# Experiment in all cases: DTP human tumour cell line panel, 48 h
# [1] = test system: HCT-116 colon
# [2] = test system: OVCAR-4 ovarian
# [3] = test system: RXF 393 renal
# [4] = test system: SK-OV-3 ovarian
# [5] = test system: NCI-H460 lung
# [6] = test system: NCI-H23 lung
# [7] = test system: K-562 leukemia
# [8] = test system: HL-60(TB) leukemia
# [9] = test system: SF-268 CNS
# [10] = test system: KM20L2 colon
# [11] = test system: SK-MEL-2 melanoma
# [12] = test system: UO-31 renal
# [13] = test system: RPMI-8226 leukemia
# [14] = test system: OVCAR-3 ovarian
# [15] = test system: EKVX NSCLC
# [16] = test system: SW-620 colon
# [17] = test system: LXFL 529 NSCLC
# [18] = test system: UACC-257 melanoma
# [19] = test system: DMS 114 small cell lung
# [20] = test system: M14 melanoma
# [21] = test system: KM12 colon
# [22] = test system: SF-539 CNS
# [23] = test system: SNB-19 CNS
# [24] = test system: HOP-92 NSCLC
# [25] = test system: COLO 205 colon
# [26] = test system: IGROV1 ovarian
# [27] = test system: OVCAR-5 ovarian
# [28] = test system: SK-MEL-28 melanoma
# [29] = test system: CCRF-CEM leukemia
# [30] = test system: SR leukemia
# [31] = test system: HT29 colon
# [32] = test system: TK-10 renal
# [33] = test system: OVCAR-8 ovarian
# [34] = test system: SK-MEL-5 melanoma
# [35] = test system: MALME-3M melanoma
# [36] = test system: HOP-62 NSCLC
# [37] = test system: NCI-H522 lung
# [38] = test system: U251 CNS
# [39] = test system: SF-295 CNS
# [40] = test system: SN12C renal
# [41] = test system: SNB-75 CNS
# [42] = test system: A549 NSCLC
# [43] = test system: M19-MEL melanoma
# [44] = test system: UACC-62 melanoma
# [45] = test system: MOLT-4 leukemia
# [46] = test system: XF 498 CNS
# [47] = test system: DMS 273 small cell lung
# [48] = test system: LOX IMVI melanoma
# [49] = test system: CAKI-1 renal
# [50] = test system: DLD-1 colon
# [51] = test system: 786-0 renal
# [52] = test system: HCT-15 colon
# [53] = test system: HOP-18 NSCLC
# [54] = test system: SNB-78 CNS
# [55] = test system: ACHN renal
# [56] = test system: NCI-H226 lung
smiles,measurement,setting,value
O=C(NN1C(=O)C(Cl)C1c1cccc([N+](=O)[O-])c1)c1ccccc1O (stereo not given),TGI,[1],> 100 µM
same,TGI,[2],> 100 µM
same,TGI,[3],> 100 µM
same,TGI,[4],> 100 µM
same,TGI,[5],> 100 µM
same,TGI,[6],> 100 µM
same,TGI,[7],> 100 µM
same,TGI,[8],> 100 µM
same,TGI,[9],> 100 µM
same,TGI,[10],> 100 µM
same,TGI,[11],> 100 µM
same,TGI,[12],> 100 µM
same,TGI,[13],> 100 µM
same,TGI,[14],> 100 µM
same,TGI,[15],> 100 µM
same,TGI,[16],> 100 µM
same,TGI,[17],> 100 µM
same,TGI,[18],> 100 µM
same,TGI,[19],> 100 µM
same,TGI,[20],> 100 µM
same,TGI,[21],> 100 µM
same,TGI,[22],> 100 µM
same,TGI,[23],> 100 µM
same,TGI,[24],> 100 µM
same,TGI,[25],> 100 µM
same,TGI,[26],> 100 µM
same,TGI,[27],> 100 µM
same,TGI,[28],> 100 µM
same,TGI,[29],> 100 µM
same,TGI,[30],> 100 µM
same,TGI,[31],> 100 µM
same,TGI,[32],> 100 µM
same,TGI,[33],> 100 µM
same,TGI,[34],> 100 µM
same,TGI,[35],> 100 µM
same,TGI,[36],> 100 µM
same,TGI,[37],> 100 µM
same,TGI,[38],> 100 µM
same,TGI,[39],> 100 µM
same,TGI,[40],> 100 µM
same,TGI,[41],> 100 µM
same,TGI,[42],> 100 µM
same,TGI,[43],> 100 µM
same,TGI,[44],> 100 µM
same,TGI,[45],> 100 µM
same,TGI,[46],> 100 µM
COc1cc2c(c3c1c(=O)c1ccccc1n3C)C=CC(C)(C)O2,TGI,[47],> 100 µM
same,TGI,[48],> 100 µM
same,TGI,[1],> 100 µM
same,TGI,[2],> 100 µM
same,TGI,[3],89 µM
same,TGI,[4],> 100 µM
same,TGI,[5],> 100 µM
same,TGI,[6],> 100 µM
same,TGI,[49],> 100 µM
same,TGI,[7],> 100 µM
same,TGI,[50],> 100 µM
same,TGI,[8],> 100 µM
same,TGI,[9],> 100 µM
same,TGI,[10],> 100 µM
same,TGI,[51],> 100 µM
same,TGI,[11],> 100 µM
same,TGI,[12],> 100 µM
same,TGI,[13],> 100 µM
same,TGI,[14],> 100 µM
same,TGI,[16],> 100 µM
same,TGI,[52],> 100 µM
same,TGI,[17],> 100 µM
same,TGI,[18],> 100 µM
same,TGI,[53],> 100 µM
same,TGI,[19],> 100 µM
same,TGI,[54],> 100 µM
same,TGI,[20],> 100 µM
same,TGI,[21],> 100 µM
same,TGI,[22],> 100 µM
same,TGI,[23],> 100 µM
same,TGI,[24],> 100 µM
same,TGI,[25],> 100 µM
same,TGI,[26],> 100 µM
same,TGI,[27],> 100 µM
same,TGI,[28],> 100 µM
same,TGI,[29],> 100 µM
same,TGI,[55],> 100 µM
same,TGI,[30],39.5 µM
same,TGI,[31],> 100 µM
same,TGI,[56],> 100 µM
same,TGI,[32],> 100 µM
same,TGI,[33],> 100 µM
same,TGI,[34],> 100 µM
same,TGI,[35],> 100 µM
same,TGI,[36],> 100 µM
same,TGI,[37],50.7 µM
same,TGI,[38],> 100 µM
same,TGI,[39],> 100 µM
same,TGI,[40],> 100 µM
same,TGI,[41],> 100 µM
same,TGI,[42],> 100 µM
same,TGI,[43],> 100 µM
same,TGI,[44],> 100 µM
same,TGI,[45],> 100 µM
